How the values were obtained:
[1] = test system: insulin receptor gene (InsR); experiment: Gene expression in the liver of obese rats (qPCR), insulin receptor gene; type: in vivo, rat; details: five-day treatment, difference with Ob group not significant
Method: (§1) Further, six groups were formed: control (Con, n = 10), obesity (Ob, n = 10), obese rats with five-day treatment with compounds 1 (Ob + 1, n = 5), 2 (Ob + 2, n = 5), 3 (Ob + 3, n = 10), and 4 (Ob + 4, n = 10). All compounds were administered in DMSO (300 µL) at a daily dose of 7 mg/kg (1 and 2), 8 mg/kg (3), and 10 mg/kg (4) (i.p.), based on the results of the preliminary experiments. The used doses of compounds 1–4, in terms of the number of moles of each compound per kg of animal body weight, were equivalent. Control and obese rats received DMSO in the same volumes (300 µL), instead of the tested compounds. During the five days of the experiment, all animals were transferred to standard food and had free access to food and drinking water. […]
(§2) The total RNA was isolated from the liver samples of rats using the “ExtractRNA Reagent” (Evrogen, Moscow, Russia), and the samples containing 1 μg of RNA were transcribed to cDNA using the random oligodeoxynucleotide primers and the “MMLV RT kit” (Evrogen, Russia). […] The amplified signals were detected using the “Applied Biosystems® 7500 Real-Time PCR System” (Life Technologies, Carlsbad, CA, USA, Thermo Fisher Scientific Inc., USA). […] The obtained data were calculated with the delta–delta Ct method and expressed as a fold expression, relative to the corresponding control. […]

[2] = test system: leptin receptor gene (LepR); experiment: Gene expression in the liver of obese rats (qPCR), leptin receptor gene; type: in vivo, rat; details: five-day treatment, difference with Ob group not significant
Method: as §1, §2

PTP1B gene = experiment: Gene expression in the liver of obese rats (qPCR), PTP1B gene; type: in vivo, rat; details: five-day treatment, vs Ob group
Method: as §1, §2

[3] = test system: male rats with HFD-induced obesity; experiment: Body weight and food intake in obese rats, five-day treatment; type: in vivo, male Wistar rats; details: five-day treatment i.p., 3 8 mg/kg/day, 4 10 mg/kg/day; for reduction of body weight in obese rats: p < 0.05 vs untreated obese animals; for reduction of the consumption of dry standard food: obese rats
Method: The male Wistar rats (at the start of the experiment the age of the animals was 2-months, and at the end of the experiment their age was 6-months) were obtained from the Rappolovo animal facility (Russia). The animals were housed in plastic cages, five animals in each, with a normal light–dark cycle (12 h/12 h), a temperature of 22 ± 3 °C, and free access to food and water. All experiments were approved by the Institutional Animal Care and Use Committee at the Sechenov Institute of Evolutionary Physiology and Biochemistry (St. Petersburg, Russia) (protocol No 02/02-2020, 19 February 2020) and according to The Guide for the Care and Use of Laboratory Animals and the European Communities Council Directive of 1986 (86/609/EEC). All efforts were made to minimize animal suffering and reduce the number of experimental animals.
(§3) The obesity model was induced at 16-weeks (starting at two months of age) using a high-fat diet. Control animals received standard laboratory chow pellets. The high-fat diet included supplements of 5–7 g of a fat mixture containing 52.4% pork lard, 41.7% curd, 5% liver, 0.5% L-methionine, 0.2% baker’s yeast, and 0.2% sodium chloride. After 16-weeks on a high-fat diet, the animals with increased body weight, glucose intolerance, and hyperinsulinemia, and hyperleptinemia were selected for further experiments. The glucose intolerance was estimated according to the results of the glucose tolerance test (GTT). In the GTT, 120 min after glucose loading, the blood glucose levels in obese rats were above 7 mM, and the AUC0-120 values for the curve “glucose concentration (mM)–time (minutes)” were above 30%, as compared to the average AUC0-120 values in the control group.
Further, six groups were formed: control (Con, n = 10), obesity (Ob, n = 10), obese rats with five-day treatment with compounds 1 (Ob + 1, n = 5), 2 (Ob + 2, n = 5), 3 (Ob + 3, n = 10), and 4 (Ob + 4, n = 10). All compounds were administered in DMSO (300 µL) at a daily dose of 7 mg/kg (1 and 2), 8 mg/kg (3), and 10 mg/kg (4) (i.p.), based on the results of the preliminary experiments. The used doses of compounds 1–4, in terms of the number of moles of each compound per kg of animal body weight, were equivalent. Control and obese rats received DMSO in the same volumes (300 µL), instead of the tested compounds. During the five days of the experiment, all animals were transferred to standard food and had free access to food and drinking water. […] The test was carried out on the morning of the next day after the last (fifth) injection of the compounds or DMSO, after a 10 h fast. The rest of the animals (n = 5 in each group) were anesthetized and decapitated on the last day of the experiment. […]

[4] = test system: male rats with HFD-induced obesity; experiment: Glucose tolerance test in obese rats after five-day treatment; type: in vivo, male Wistar rats; details: 4 10 mg/kg/day; for reduction of AUC0-120 of the glucose concentration curve vs untreated animals: GTT after five-day treatment, p < 0.05 vs Ob group; for reduction of AUC0-120 of the glucose concentration curve vs untreated animals / reduction of glucose level 120 min after glucose load vs untreated obese animals: 3 8 mg/kg/day; for reduction of glucose level 120 min after glucose load vs untreated obese animals: GTT glucose 2 g/kg i.p. after five-day treatment
Description: as §3
Further, six groups were formed: control (Con, n = 10), obesity (Ob, n = 10), obese rats with five-day treatment with compounds 1 (Ob + 1, n = 5), 2 (Ob + 2, n = 5), 3 (Ob + 3, n = 10), and 4 (Ob + 4, n = 10). All compounds were administered in DMSO (300 µL) at a daily dose of 7 mg/kg (1 and 2), 8 mg/kg (3), and 10 mg/kg (4) (i.p.), based on the results of the preliminary experiments. The used doses of compounds 1–4, in terms of the number of moles of each compound per kg of animal body weight, were equivalent. Control and obese rats received DMSO in the same volumes (300 µL), instead of the tested compounds. During the five days of the experiment, all animals were transferred to standard food and had free access to food and drinking water. […] The test was carried out on the morning of the next day after the last (fifth) injection of the compounds or DMSO, after a 10 h fast. The rest of the animals (n = 5 in each group) were anesthetized and decapitated on the last day of the experiment. The blood and liver samples were taken to measure blood glucose and hormone levels and gene expression in the liver.
The glucose levels in the blood obtained from the tail vein were measured using a glucometer (Life Scan Johnson & Johnson, Denmark) and the test strips “One Touch Ultra” (USA). The levels of insulin and leptin in rat serum were estimated with the “Rat Insulin ELISA” (Mercodia AB, Uppsala, Sweden) and “ELISA for Leptin, Rat” (Cloud-Clone Corporation, Houston, TX, USA) kits. The GTT was carried out using a single injection of glucose (2 g/kg, i.p.) after 10 h of fasting, as described earlier. The blood glucose levels were measured before (0 min) and 15, 30, 60, and 120 min after the glucose load.

| SMILES | expression of the gene encoding the insulin receptor in the liver [1] | expression of the gene encoding the leptin receptor in the liver [2] | expression of the PTP1B gene in the liver (PTP1B gene) | reduction of body weight in obese rats [3] [g] | reduction of the consumption of dry standard food [3] [%] | reduction of AUC0-120 of the glucose concentration curve vs untreated animals [4] [%] | reduction of glucose level 120 min after glucose load vs untreated obese animals [4] [%] | glucose sensitivity in the glucose tolerance test ([4]; obese rats, five-day treatment) |
| --- | --- | --- | --- | --- | --- | --- | --- | --- |
| O=c1c(CO)n[nH]c2ccc(Br)cc12 [Compound 4, 6-Bromo-3-(hydroxymethyl)cinnolin-4(1H)-one] | slight decrease | slight decrease | significant difference to the Ob group | 22.6 ± 4.0 | 39 | 20 | 17 | improved |
| O=c1c(CO)n[nH]c2ccc(Cl)cc12 [Compound 3, 6-Chloro-3-(hydroxymethyl)cinnolin-4(1H)-one] | slight decrease | slight decrease | significant difference to the Ob group | 22.2 ± 4.5 | 46 | 24 | 20 |  |
